# Measurements as given in US20070049593A1 (priority 2004, published 2007).
# Structures can show the parent of a compound that is named as a salt.
# Biological target: T1, HCV polymerase (Hepatitis C virus genotype 1b, UniProt P26663)
# T1 construct: a region encoding NS5B (J Virol 1991 March, 65(3), 1105-13, 544 amino acids after deletion of 47 amino acids on the C-terminal); 6xHis (C); made in house; host or cells: Escherichia coli
# Experiment: biochemical
# Set-up: species or system HCV BK strain
# Settings: not given
# Method in brief: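 His-tagged NS5B (BK strain, 47-aa C-terminal deletion, E. coli-expressed) at 0.5 μg/ml copied 5 μg/ml run-off RNA bearing the HCV 3′ UTR with 2 μM UTP plus [3H]UTP, 50 μM ATP/GTP, in pH 7.5 Tris with 5 mM MgCl2, 25 °C, 90 min. TCA-precipitated RNA was counted and IC50 calculated.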
# T1 sequence (P26663 2420-2963): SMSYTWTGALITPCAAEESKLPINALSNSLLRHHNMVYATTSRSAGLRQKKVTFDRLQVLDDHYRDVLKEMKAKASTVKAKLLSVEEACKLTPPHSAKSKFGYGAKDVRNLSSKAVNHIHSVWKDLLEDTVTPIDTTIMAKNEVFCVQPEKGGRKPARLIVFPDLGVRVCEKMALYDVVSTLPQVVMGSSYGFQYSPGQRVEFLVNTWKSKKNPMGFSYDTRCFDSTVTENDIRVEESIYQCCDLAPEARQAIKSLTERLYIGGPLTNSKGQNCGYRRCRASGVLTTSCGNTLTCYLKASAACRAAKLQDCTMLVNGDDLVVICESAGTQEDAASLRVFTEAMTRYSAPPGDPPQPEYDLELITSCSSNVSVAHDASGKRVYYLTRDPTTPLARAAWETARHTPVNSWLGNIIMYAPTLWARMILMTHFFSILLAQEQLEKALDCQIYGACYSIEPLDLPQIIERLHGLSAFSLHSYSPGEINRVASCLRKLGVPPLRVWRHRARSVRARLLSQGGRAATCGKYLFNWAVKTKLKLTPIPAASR
row,SMILES,IC50 [nM]
1,"CCN1CCN(CCN2CCn3c(c(C4CCCCC4)c4ccc(C(=O)O)cc43)-c3ccc(C)cc32)CC1 [Example 1-110, 13-cyclohexyl-5-[2-(4-ethylpiperazin-1-yl)ethyl]-3-methyl-6,7-dihydro-5H-benzo[5,6][1,4]diazepino[7,1-a]indole-10-carboxylic acid trihydrochloride]",< 100
2,"O=C(O)c1ccc2c(C3CCCCC3)c3n(c2c1)CCN(CCCN1CCCCC1)c1ccccc1-3 [Example 1-111, 13-cyclohexyl-5-[3-(piperidin-1-yl)propyl]-6,7-dihydro-5H-benzo[5,6][1,4]diazepino[7,1-a]indole-10-carboxylic acid dihydrochloride]",< 100
3,"O=C(O)c1ccc2c(C3CCCCC3)c3n(c2c1)CCN(CCCO)c1ccccc1-3 [Example 1-112, 13-cyclohexyl-5-(3-hydroxypropyl)-6,7-dihydro-5H-benzo[5,6][1,4]diazepino[7,1-a]indole-10-carboxylic acid monohydrochloride]",< 100
4,"O=C(O)c1ccc2c(C3CCCCC3)c3n(c2c1)CCN(CCN1CCCC(O)C1)c1ccccc1-3 (stereo not drawn) [Example 1-113, 13-cyclohexyl-5-[2-(3-hydroxypiperidin-1-yl)ethyl]-6,7-dihydro-5H-benzo[5,6][1,4]diazepino[7,1-a]indole-10-carboxylic acid dihydrochloride]",< 100
5,"O=C(O)c1ccc2c(C3CCCCC3)c3n(c2c1)CCN(CC(=O)N1CCCCC1)c1cc(F)ccc1-3 [Example 1-114, 13-cyclohexyl-3-fluoro-5-[2-oxo-2-(piperidin-1-yl)ethyl]-6,7-dihydro-5H-benzo[5,6][1,4]diazepino[7,1-a]indole-10-carboxylic acid monohydrochloride]",< 100
6,"Cc1ccc2c(c1)N(CC(=O)N1CCCCC1)CCn1c-2c(C2CCCCC2)c2ccc(C(=O)O)cc21 [Example 1-115, 13-cyclohexyl-3-methyl-5-[2-oxo-2-(piperidin-1-yl)ethyl]-6,7-dihydro-5H-benzo[5,6][1,4]diazepino[7,1-a]indole-10-carboxylic acid monohydrochloride]",< 100
7,"O=C(O)c1ccc2c(C3CCCCC3)c3n(c2c1)CCN(CCN1CCCCC1)c1cc(F)ccc1-3 [Example 1-116, 13-cyclohexyl-3-fluoro-5-[2-(piperidin-1-yl)ethyl]-6,7-dihydro-5H-benzo[5,6][1,4]diazepino[7,1-a]indole-10-carboxylic acid dihydrochloride]",< 100
8,"CCN1CCN(C(=O)CN2CCn3c(c(C4CCCCC4)c4ccc(C(=O)O)cc43)-c3ccc(C)cc32)CC1 [Example 1-117, 13-cyclohexyl-5-[2-(4-ethylpiperazin-1-yl)-2-oxoethyl]-3-methyl-6,7-dihydro-5H-benzo[5,6][1,4]diazepino[7,1-a]indole-10-carboxylic acid dihydrochloride]",< 100
9,"CC(=O)N1CCC(CN2CCn3c(c(C4CCCCC4)c4ccc(C(=O)O)cc43)-c3ccccc32)CC1 [Example 1-118, 5-(1-acetylpiperidin-4-ylmethyl)-13-cyclohexyl-6,7-dihydro-5H-benzo[5,6][1,4]diazepino[7,1-a]indole-10-carboxylic acid monohydrochloride]",< 100
10,"CC(C)N1CCC(CCN2CCn3c(c(C4CCCCC4)c4ccc(C(=O)O)cc43)-c3ccccc32)CC1 [Example 1-119, 13-cyclohexyl-5-[2-(1-isopropylpiperidin-4-yl)ethyl]-6,7-dihydro-5H-benzo[5,6][1,4]diazepino[7,1-a]indole-10-carboxylic acid dihydrochloride]",< 100
11,"O=C(O)c1ccc2c(C3CCCCC3)c3n(c2c1)CCN(CC1CCOCC1)c1ccccc1-3 [Example 1-120, 13-cyclohexyl-5-(tetrahydropyran-4-ylmethyl)-6,7-dihydro-5H-benzo[5,6][1,4]diazepino[7,1-a]indole-10-carboxylic acid monohydrochloride]",< 100
12,"CC1CCCN(C(=O)CN2CCn3c(c(C4CCCCC4)c4ccc(C(=O)O)cc43)-c3ccccc32)C1 (stereo not drawn) [Example 1-122, 13-cyclohexyl-5-[2-(3-methylpiperidin-1-yl)-2-oxoethyl]-6,7-dihydro-5H-benzo[5,6][1,4]diazepino[7,1-a]indole-10-carboxylic acid monohydrochloride]",< 100
13,"CCN1CCC(=CCN2CCn3c(c(C4CCCCC4)c4ccc(C(=O)O)cc43)-c3ccccc32)CC1 [Example 1-123, 13-cyclohexyl-5-[2-(1-ethylpiperidin-4-ylidene)ethyl]-6,7-dihydro-5H-benzo[5,6][1,4]diazepino[7,1-a]indole-10-carboxylic acid dihydrochloride]",< 100
14,"CC(C)C1CCN(C(=O)CN2CCn3c(c(C4CCCCC4)c4ccc(C(=O)O)cc43)-c3ccccc32)CC1 [Example 1-124, 13-cyclohexyl-5-[2-(4-isopropylpiperidin-1-yl)-2-oxoethyl]-6,7-dihydro-5H-benzo[5,6][1,4]diazepino[7,1-a]indole-10-carboxylic acid monohydrochloride]",< 100
15,"COC1CCCN(C(=O)CN2CCn3c(c(C4CCCCC4)c4ccc(C(=O)O)cc43)-c3ccccc32)C1 (stereo not drawn) [Example 1-125, 13-cyclohexyl-5-[2-(3-methoxypiperidin-1-yl)-2-oxoethyl]-6,7-dihydro-5H-benzo[5,6][1,4]diazepino[7,1-a]indole-10-carboxylic acid monohydrochloride]",< 100
16,"O=C(O)c1ccc2c(C3CCCCC3)c3n(c2c1)CCN(Cc1ccccn1)c1ccccc1-3 [Example 1-126, 13-cyclohexyl-5-(pyridin-2-ylmethyl)-6,7-dihydro-5H-benzo[5,6][1,4]diazepino[7,1-a]indole-10-carboxylic acid dihydrochloride]",< 100
17,"CCCS(=O)(=O)NC(=O)c1ccc2c(C3CCCCC3)c3n(c2c1)CCN(CC(=O)N1CCN(CC)CC1)c1ccccc1-3 [Example 1-129, N-{13-cyclohexyl-5-[2-(4-ethylpiperazin-1-yl)-2-oxoethyl]-6,7-dihydro-5H-benzo[5,6][1,4]diazepino[7,1-a]indole-10-carbonyl}propane-1-sulfonamide dihydrochloride]",< 100
18,"CCN1CCC(CN2CCn3c(c(C4CCCCC4)c4ccc(C(=O)O)cc43)-c3ccccc32)CC1 [Example 1-130, 13-cyclohexyl-5-(1-ethylpiperidin-4-ylmethyl)-6,7-dihydro-5H-benzo[5,6][1,4]diazepino[7,1-a]indole-10-carboxylic acid]",< 100
19,"O=C(O)c1ccc2c(C3CCCCC3)c3n(c2c1)CCN(CC(=O)N1CCCCCCC1)c1ccccc1-3 [Example 1-131, 5-[2-(azocan-1-yl)-2-oxoethyl]-13-cyclohexyl-6,7-dihydro-5H-benzo[5,6][1,4]diazepino[7,1-a]indole-10-carboxylic acid]",< 100
20,"O=C(O)c1ccc2c(C3CCCCC3)c3n(c2c1)CCN(CC(=O)N1CCCCCCCC1)c1ccccc1-3 [Example 1-132, 5-[2-(azonan-1-yl)-2-oxoethyl]-13-cyclohexyl-6,7-dihydro-5H-benzo[5,6][1,4]diazepino[7,1-a]indole-10-carboxylic acid]",< 100
21,"O=C(O)c1ccc2c(C3CCCCC3)c3n(c2c1)CCN(Cc1ccncc1)c1ccccc1-3 [Example 1-134, 13-cyclohexyl-5-(pyridin-4-ylmethyl)-6,7-dihydro-5H-benzo[5,6][1,4]diazepino[7,1-a]indole-10-carboxylic acid dihydrochloride]",< 100
22,"O=C(O)c1ccc2c(C3CCCCC3)c3n(c2c1)CCN(Cc1cccnc1)c1ccccc1-3 [Example 1-135, 13-cyclohexyl-5-(pyridin-3-ylmethyl)-6,7-dihydro-5H-benzo[5,6][1,4]diazepino[7,1-a]indole-10-carboxylic acid dihydrochloride]",< 100
23,"O=C(O)c1ccc2c(C3CCCCC3)c3n(c2c1)CCN(CC(=O)N1CC=CCC1)c1ccccc1-3 [Example 1-136, 13-cyclohexyl-5-[2-(3,6-dihydro-2H-pyridin-1-yl)-2-oxoethyl]-6,7-dihydro-5H-benzo[5,6][1,4]diazepino[7,1-a]indole-10-carboxylic acid]",< 100
24,"CC1CCCCN1C(=O)CN1CCn2c(c(C3CCCCC3)c3ccc(C(=O)O)cc32)-c2ccccc21 (stereo not drawn) [Example 1-137, 13-cyclohexyl-5-[2-(2-methylpiperidin-1-yl)-2-oxoethyl]-6,7-dihydro-5H-benzo[5,6][1,4]diazepino[7,1-a]indole-10-carboxylic acid]",< 100
25,"O=C(O)c1ccc2c(C3CCCCC3)c3n(c2c1)CCN(CC(=O)N1CCc2ccccc2C1)c1ccccc1-3 [Example 1-138, 13-cyclohexyl-5-[2-(3,4-dihydro-1H-isoquinolin-2-yl)-2-oxoethyl]-6,7-dihydro-5H-benzo[5,6][1,4]diazepino[7,1-a]indole-10-carboxylic acid monohydrochloride]",< 100
26,"O=C(O)c1ccc2c(C3CCCCC3)c3n(c2c1)CCN(CC(=O)N1CCCC2CCCCC21)c1ccccc1-3 (stereo not drawn) [Example 1-139, 13-cyclohexyl-5-[2-(octahydroquinolin-1-yl)-2-oxoethyl]-6,7-dihydro-5H-benzo[5,6][1,4]diazepino[7,1-a]indole-10-carboxylic acid monohydrochloride]",< 100

# Same assay, conditions: read-out: HCV polymerase inhibitory activity IC50; 25° C., 90 min; [5,6-3H]UTP incorporation into RNA
row,SMILES,IC50 [nM]
1,"CCN1CCC(CN2CCn3c(c(C4CCCCC4)c4ccc(C(=O)O)cc43)-c3ccccc32)CC1 [Example 1-133, 13-cyclohexyl-5-(1-ethylpiperidin-4-ylmethyl)-6,7-dihydro-5H-benzo[5,6][1,4]diazepino[7,1-a]indole-10-carboxylic acid dihydrochloride]",< 100
